In the supplement of paper PMC5579334:

How the values were obtained:
[1] = test system: HS-PSS; assay: relative IC50 (inflection point of fitted dose-response curve, CellTox-Green cytotoxicity, 72 h; top asymptote may be below 50%); higher = less potent
In short: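 MPNST cell lines and primary human Schwann cells were grown for 72 h at 37 °C in 384-well plates containing five 10-fold compound dilutions. CellTox-Green, added before seeding at a final 1:1000 dilution, gave fluorescence from DNA released by disrupted cells, and signals were scaled to vehicle and positive-control wells. Curves were fitted with a four-parameter logistic model. Drug sensitivity score and relative IC50 come from these fits, with IC50 censored at the top concentration.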

[2] = test system: HS-PSS; assay: relative IC50 (inflection point of fitted dose-response curve, CellTiter-Glo viability, 72 h; top asymptote may be below 50% inhibition); higher = less potent
In short: (§1)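 For this screen, 384-well plates were preprinted with each compound at five concentrations in 10-fold steps and seeded with MPNST cell lines or primary human Schwann cells at 750–1000 cells per well. Incubation lasted 72 h at 37 °C, 5% CO2, and CellTiter-Glo ATP luminescence, scaled between vehicle and positive-control wells and averaged over duplicates where available, served as viability. Logistic fits with four parameters were applied. Relative IC50 (censored at the top concentration) and drug sensitivity score derive from these fits, and percent inhibition is at the top concentration.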

[3] = test system: YST-1; assay: as above
In short: as §1

[4] = test system: HS-Sch-2; assay: as above
In short: as §1

SMILES | relative IC50 [1] | relative IC50 [2] | relative IC50 [3] | relative IC50 [4]
Cc1ccc(NC(=O)c2ccc(CN3CC[C@H](N(C)C)C3)c(C(F)(F)F)c2)cc1Nc1nccc(-c2cncnc2)n1 [Bafetinib] | > 1 µM | > 1 µM | 0.259 µM | –
CNC(=O)c1cc(COc2nnc(Nc3ccc(Cl)cc3)c3ccoc23)ccn1 [Telatinib] | > 10 µM | > 10 µM | – | > 10 µM
Cn1cnc2c(F)c(Nc3ccc(Br)cc3F)c(C(=O)NOCCO)cc21 [Binimetinib] | > 1 µM | > 1 µM | > 1 µM | –
Cc1cc(-c2nc(-c3ccc(OC(F)(F)F)cc3)no2)nn1Cc1ccnc(N2CCN(C3CC3)CC2)c1 [BAY 87-2243] | > 1 µM | 0.00066 µM | – | 0.00063 µM
CC(C)(C)C[C@@H]1N[C@@H](C(=O)N[C@H]2CC[C@H](O)CC2)[C@H](c2cccc(Cl)c2F)[C@]12C(=O)Nc1cc(Cl)ccc12 | > 10 µM | 3.28 µM | 0.14 µM | –
Cc1cnc(-c2ccccc2C(C)C)nc1NCc1ccc(-n2ccnn2)cc1 [ML323] | > 10 µM | 1.67 µM | – | 1.46 µM
Cc1cc(C)c(/C=C2\C(=O)Nc3ccccc32)[nH]1 [Semaxanib] | 2.28 µM | > 10 µM | – | > 10 µM
Cc1cccc(CC(=O)N2CCc3c2ccc(-c2cn(C)c4ncnc(N)c24)c3F)n1 | – | 0.993 µM | – | –
O=C(O)CC1CC(c2ccccc2)=NO1 (stereo not drawn) [VGX-1027] | > 10 µM | > 10 µM | > 10 µM | –
C[C@H](Nc1ncnc2nc[nH]c12)c1cc2cccc(Cl)c2c(=O)n1-c1ccccc1 [Duvelisib] | – | > 0.5 µM | – | –
CNC(=O)[C@@H](NC(=O)[C@H](CC(C)C)[C@H](O)C(=O)NO)C(C)(C)C [Marimastat] | > 10 µM | > 10 µM | > 10 µM | –
CCC(C)n1ncn(-c2ccc(N3CCN(c4ccc(OCC5COC(Cn6cncn6)(c6ccc(Cl)cc6Cl)O5)cc4)CC3)cc2)c1=O (stereo not drawn) [Itraconazole] | > 5 µM | 0.904 µM | 1.54 µM | –
CN(C)C(=O)c1ccc(S(=O)(=O)c2ccc(NC(=O)[C@@](C)(O)C(F)(F)F)c(Cl)c2)cc1 [AZD7545] | > 10 µM | 3.91 µM | > 10 µM | –
O=C(O)c1ccc(O)c2ncccc12 [IOX-1] | > 100 µM | > 100 µM | 36.6 µM | –
C[C@H]1Oc2cc(cnc2N)-c2c(nn(C)c2C#N)CN(C)C(=O)c2ccc(F)cc21 | > 1 µM | 0.0107 µM | > 1 µM | –
Cc1c(C(=O)Nc2ccc(N3C[C@@H](C)O[C@@H](C)C3)nc2)cccc1-c1ccc(OC(F)(F)F)cc1 [Sonidegib] | > 10 µM | 0.76 µM | > 10 µM | –
NC(=O)Nc1sc(-c2ccc(F)cc2)cc1C(N)=O [TPCA-1] | > 25 µM | 3.98 µM | 4.33 µM | –
O=C(Nc1ccc(-c2ccnc(Nc3ccc(N4CCOCC4)cc3)n2)cc1)[C@H]1CCCN1 [XL019] | > 10 µM | 2.85 µM | – | –
Nc1nc(Nc2ccc3c(c2)CC[C@@H](N2CCCC2)CC3)nn1-c1cc2c(nn1)-c1ccccc1CCC2 [BGB324] | > 10 µM | – | 2.14 µM | 0.57 µM
COc1ccc2c(OCc3nnc4ccc(-c5ccccc5)nn34)ccnc2c1 [AMG-208] | > 2.5 µM | – | > 2.5 µM | > 2.5 µM
Cn1ncc(Cl)c1-c1cc(C(=O)N[C@H](CN)Cc2cccc(F)c2)sc1Cl [Afuresertib] | > 1 µM | – | 0.327 µM | > 1 µM
COc1cc2nccc(Oc3ccc(NC(=O)NC4CC4)c(Cl)c3)c2cc1C(N)=O [Lenvatinib] | > 2.5 µM | > 2.5 µM | – | –

SMILES | relative IC50 [1] | relative IC50 [2] | relative IC50 [3] | relative IC50 [4]
CC[C@H](C)C(=O)O[C@H]1C[C@H](O)C=C2C=C[C@H](C)[C@H](CC[C@@H](O)C[C@@H](O)CC(=O)O)[C@H]21 [Pravastatin] | > 10 µM | – | > 10 µM | > 10 µM
Cc1nc(-c2cn3c(n2)-c2ccc(-c4cnn(C(C)(C)C(N)=O)c4)cc2OCC3)n(C(C)C)n1 [Taselisib] | > 1 µM | 0.425 µM | 0.0249 µM | –
COc1ccc(Cn2ccc3ccc(C(=O)NO)cc32)cc1 | > 10 µM | – | 1.6 µM | 3.75 µM
CNC(=O)c1ccc(-c2cnc3ncc(Cc4ccc5ncccc5c4)n3n2)cc1F [NVP-INC280] | > 1 µM | > 1 µM | – | –
CNc1nc(-c2ccc3c(N)n[nH]c3c2)cc(N2C[C@@H](C(=O)NC3CCCCC3)CC[C@H]2C)n1 | > 10 µM | 3.05 µM | 0.585 µM | –
CCc1cc(Nc2nccc(-c3c(-c4ccc(OC)c(C(=O)Nc5c(F)cccc5F)c4)nc4ccccn34)n2)c(OC)cc1N1CCC(N2CCN(S(C)(=O)=O)CC2)CC1 | > 10 µM | > 10 µM | 0.0312 µM | –
Cc1nc(=O)c2cc(CN(C)c3ccc(C(=O)N[C@@H](CCC(=O)O)C(=O)O)s3)ccc2[nH]1 [Raltitrexed] | > 1 µM | – | 0.0112 µM | 0.0227 µM
COCC1(CO)C(=O)C2CCN1CC2 (stereo not drawn) [APR-246] | > 10 µM | – | > 10 µM | > 10 µM
CCOc1ccn(-c2ccc(F)cc2)c(=O)c1C(=O)Nc1ccc(Oc2ccnc(N)c2Cl)c(F)c1 | > 2.5 µM | – | > 2.5 µM | > 2.5 µM
CCNc1nc(Nc2cc(F)c(C(=O)N3CCOCC3)cc2OC)ncc1C(F)(F)F [GNE-7915] | > 1 µM | > 1 µM | > 1 µM | –
CCCNC(=O)Nc1ccc(Oc2ncnc3cc(OC)c(OC)cc23)cc1Cl [KRN-633] | > 2.5 µM | – | > 2.5 µM | > 2.5 µM
Cc1csc(-c2nnc(Nc3ccc(Oc4ncccc4-c4ccnc(N)n4)cc3)c3ccccc23)c1 [AMG-900] | > 1 µM | – | 0.011 µM | 0.326 µM
O=C(Nc1cccc(Cl)c1)Nc1ncc(CCNc2ncnc3ccsc23)s1 [SNS-314] | > 1 µM | – | 0.00884 µM | 0.185 µM
O=c1[nH]c(C2CCCN2)nc2c1oc1ccc(Cl)cc12 (stereo not drawn) | – | 1.5 µM | 1.22 µM | –
Nc1nc(N)c2nc(-c3cccc(O)c3)c(-c3cccc(O)c3)nc2n1 [TG100-115] | > 10 µM | > 10 µM | – | –
CNC(=O)CN1CCC(Oc2cc3c(Nc4cccc(Cl)c4F)ncnc3cc2OC)CC1 [Sapitinib] | > 1 µM | > 1 µM | – | –
NS(=O)(=O)NCCNc1nonc1/C(=N/O)Nc1ccc(F)c(Br)c1 [Epacadostat] | > 10 µM | > 10 µM | – | –
CNC(=O)c1c(F)cccc1Nc1nc(Nc2cc3c(cc2OC)CCN3C(=O)CN(C)C)nc2[nH]ccc12 | – | 0.0321 µM | 0.073 µM | –
CNC(=O)c1cccc2cc(Oc3ccnc4cc(OCC5(N)CC5)c(OC)cc34)ccc12 [Lucitanib] | > 10 µM | – | 1.42 µM | 3.71 µM
O=C(Nc1nc2cccc(-c3ccc(CN4CCS(=O)(=O)CC4)cc3)n2n1)C1CC1 [Filgotinib] | > 10 µM | – | 3.69 µM | 2.68 µM
FC(F)(F)c1ccc(CNc2ccc(Cc3c[nH]c4ncc(Cl)cc34)cn2)cn1 [Pexidartinib] | > 10 µM | 1.74 µM | – | –
CC1CCC(n2c3cnccc3c3cnc(Nc4ccc5c(n4)CCN(C(=O)CO)C5)nc32)CC1 (stereo not drawn) [AMG-925] | > 1 µM | > 1 µM | – | –
